Measurements reported in patent US20220144879A1, “FLUORESCENT PROBE FOR DETECTING CANCER” (The University of Tokyo, priority 2019, published 2022).

Key:
[1] = test system: breast cancer and benign tumor tissues (clinical mammary gland specimen); experiment: Two-color imaging with HMRef-α-D-Man and GGT probe in combination (FIG. 9); set-up: species or system human; conditions: 50 μM each probe; 30 minutes after administration of both probes
Experimental: Two-color imaging was performed under the following conditions using the glycosidase-reactive fluorescent probe 5 (HMRef-α-D-Man) (concentration: 50 μM) and a GGT probe gGlu-2-OMeSiR600 (concentration: 50 μM) in combination.
200 μL of a PBS solution of the fluorescent probes at the above concentrations was added to each well in which a clinical mammary gland specimen was placed, and fluorescence images at 1, 3, 5, 10, 20, and 30 minutes were acquired at 540 nm and 640 nm using the Maestro in vivo imaging system (PerkinElmer Inc.). Each fluorescence intensity value was quantified and compared by taking Regions Of Interest (ROIs) on Maestro software. For the glycosidase-reactive fluorescent probe 5, Ex/Em=465-30 nm/515 nm long-pass was used as the filter setting. For the GGT probe, Ex/Em=570-40 nm/610 nm long-pass was used.
The exposure time (in milliseconds) of the fluorescence image is indicated at the bottom of each image.

[2] = test system: intact glycosidase activities in normal breast, IDC (breast cancer), and FA (benign tumor) tissues; experiment: Screening of glycosidase-reactive fluorescent probes for detecting breast cancer and benignancy (fluorescence increase in clinical mammary gland specimens); set-up: species or system human; conditions: probe 50 μM in PBS, increase from 1 minute to 30 minutes after addition, 540 nm
Experimental: Using the 12 types of glycosidase-reactive fluorescent probes synthesized above (refer to FIG. 1), screening for the detection of breast cancer and benignancy was performed in the following procedure.
200 μL of a PBS solution of each fluorescent probe at a concentration of 50 μM was added to each well in which a clinical mammary gland specimen was placed, and fluorescence images at 1, 3, 5, 10, 20, and 30 minutes were acquired at 540 nm using a Maestro in vivo imaging system (PerkinElmer Inc.). Each fluorescence intensity value was quantified and compared by taking Regions Of Interest (ROIs) on Maestro software. Ex/Em=465−30 nm/515 nm long-pass was used as the filter setting.
The increase in fluorescence indicates increase after the lapse of 1 minute to 30 minutes since the addition of the fluorescent probe. Each dot represents, from left to right, increase in fluorescence in normal breast, IDC, DCIS, and FA tissues.

COc1ccccc1C1=C2C=CC(=N)C=C2[Si](C)(C)c2cc(NC(=O)CC[C@H](N)C(=O)O)ccc21 [gGlu-2OME-SiR600, gGlu-2-OMeSiR600]
red fluorescence (640 nm) [1]: emitted red fluorescence in both breast cancer (malignant tumor) and the benign tumor

COc1ccccc1C1=C2C=CC(=N)C=C2[Si](C)(C)c2cc(NC(=O)CC[C@H](N)C(=O)O)ccc21 [compound 7]
increase in fluorescence [2]: increase in fluorescence in both the breast cancer and FA (benign tumor) tissues
